Data reported in article PMC13020021 (International Journal for Parasitology: Drugs and Drug …, 2026).
Entries after “also recorded” stand apart in the source; their conditions may differ.

Key:
[1] = test system: natural TRPMPZQ variants; experiment: Ca2+ reporter assay, entire natural variation collection; type: cell-based, Schistosoma mansoni; settings: mean ± sd
[2] = test system: TRPMPZQ of pseudophyllidean cestodes; settings: binding pocket variation of pseudophyllidean cestodes ref Sprague et al., 2025; cited from earlier work
[3] = test system: Fasciola spp. TRPMPZQ; settings: Fasciola spp. TRPMPZQ ref Park et al., 2021; cited from earlier work

With `O=C(C1CCCCC1)N1CC(=O)N2CCc3ccccc3C2C1` (racemic) [(±)-PZQ, praziquantel] as the compound, how does the “average RA of the entire natural variation collection” value [1] read?
The value was 1.2 ± 0.55.

And the “sensitivity to PZQ” value [2]?
The value was “micromolar range”.

And the “sensitivity of TRPMPZQ to PZQ” value [3]?
Its value is “insensitivity; also recorded: refractory”.
